According to paper PMC6968521, “Novel CDKs inhibitors for the treatment of solid tumour by simultaneously regulating the cell cycle and transcription control” (Journal of Enzyme Inhibition and Medicinal Chemistry, 2020):
Several values for one entry are separate records, joined by “and”; a condition that tells them apart may be missing. Equal entries are not always repeated.

How the values were obtained:
CDK4 = target: T1, CDK4 (Homo sapiens, UniProt P11802); experiment: Kinase inhibition assay (KinaseProfiler, Eurofins), CDK4; format: biochemical; conditions: for IC50: ATP at Km, mean of two independent experiments
T1 construct: purchased Eurofins (KinaseProfiler service)
Protocol: (§1) Kinase inhibition profiles were determined using KinaseProfiler services provided by Eurofins, and ATP concentrations used the Km of corresponding kinases.

CDK6 = target: T2, CDK6 (Homo sapiens, UniProt Q00534); experiment: Kinase inhibition assay (KinaseProfiler, Eurofins), CDK6; format: biochemical; conditions: for IC50: ATP at Km, mean of two independent experiments
T2 construct: purchased Eurofins (KinaseProfiler service)
Protocol: as §1

CDK9 = target: T3, CDK9 (Homo sapiens, UniProt P50750); experiment: Kinase inhibition assay (KinaseProfiler, Eurofins), CDK9; format: biochemical; conditions: for IC50: ATP at Km, mean of two independent experiments
T3 construct: purchased Eurofins (KinaseProfiler service)
Protocol: as §1

MCF7 cells = experiment: CCK-8 cytotoxicity assay, MCF7; format: cell-based; conditions: Homo sapiens, CCK-8, 72 h incubation, three independent experiments, read-out: In vitro cell growth inhibition IC50, MCF7
Protocol: (§2) All the human cancer cell lines were obtained from ATCC. Cells were cultured in RPMI-1640 (BioInd) medium according to the instructions from ATCC, with the medium containing 10% FBS (BioInd), 1% antibiotics (penicillin and streptomycin) at 37 °C in an atmosphere of 5% CO2.
(§3) Cytotoxicity assay were conducted as described previously using a Cell Counting Kit-8 (CCK-8) assay (#CK04, Dojindo, Kumamoto, Japan)[37].

H460 cells = experiment: CCK-8 cytotoxicity assay, H460; format: cell-based; conditions: Homo sapiens, NCI-H460; CCK-8, 72 h incubation, three independent experiments; read-out: In vitro cell growth inhibition IC50, H460
Protocol: as §2, §3

4T1 breast cancer cells = experiment: CCK-8 cytotoxicity assay, 4T1; format: cell-based; conditions: CCK-8, 72 h incubation, three independent experiments; read-out: In vitro cell growth inhibition IC50, 4T1
Protocol: as §2, §3

T-47D cells = experiment: CCK-8 cytotoxicity assay, T-47D; format: cell-based; conditions: Homo sapiens, T47D; CCK-8, 72 h incubation, three independent experiments; read-out: In vitro cell growth inhibition IC50, T-47D
Protocol: as §2, §3

H1299 cells = experiment: CCK-8 cytotoxicity assay, H1299; format: cell-based; conditions: Homo sapiens, NCI-H1299; CCK-8, 72 h incubation, three independent experiments; read-out: In vitro cell growth inhibition IC50, H1299
Protocol: as §2, §3

A549 cells = experiment: CCK-8 cytotoxicity assay, A549; format: cell-based; conditions: Homo sapiens, CCK-8, 72 h incubation, three independent experiments, read-out: In vitro cell growth inhibition IC50, A549
Protocol: as §2, §3

T3 sequence (P50750 whole entry): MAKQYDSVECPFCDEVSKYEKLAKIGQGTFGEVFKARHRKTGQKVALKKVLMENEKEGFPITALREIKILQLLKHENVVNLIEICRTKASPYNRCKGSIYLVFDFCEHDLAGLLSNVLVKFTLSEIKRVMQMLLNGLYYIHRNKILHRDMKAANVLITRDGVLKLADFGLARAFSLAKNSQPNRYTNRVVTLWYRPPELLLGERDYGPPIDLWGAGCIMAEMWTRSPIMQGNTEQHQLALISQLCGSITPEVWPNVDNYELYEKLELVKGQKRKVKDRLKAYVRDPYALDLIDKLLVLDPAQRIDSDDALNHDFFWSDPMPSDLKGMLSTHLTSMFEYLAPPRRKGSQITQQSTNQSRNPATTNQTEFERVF
T3 sequence (O60563 whole entry partner): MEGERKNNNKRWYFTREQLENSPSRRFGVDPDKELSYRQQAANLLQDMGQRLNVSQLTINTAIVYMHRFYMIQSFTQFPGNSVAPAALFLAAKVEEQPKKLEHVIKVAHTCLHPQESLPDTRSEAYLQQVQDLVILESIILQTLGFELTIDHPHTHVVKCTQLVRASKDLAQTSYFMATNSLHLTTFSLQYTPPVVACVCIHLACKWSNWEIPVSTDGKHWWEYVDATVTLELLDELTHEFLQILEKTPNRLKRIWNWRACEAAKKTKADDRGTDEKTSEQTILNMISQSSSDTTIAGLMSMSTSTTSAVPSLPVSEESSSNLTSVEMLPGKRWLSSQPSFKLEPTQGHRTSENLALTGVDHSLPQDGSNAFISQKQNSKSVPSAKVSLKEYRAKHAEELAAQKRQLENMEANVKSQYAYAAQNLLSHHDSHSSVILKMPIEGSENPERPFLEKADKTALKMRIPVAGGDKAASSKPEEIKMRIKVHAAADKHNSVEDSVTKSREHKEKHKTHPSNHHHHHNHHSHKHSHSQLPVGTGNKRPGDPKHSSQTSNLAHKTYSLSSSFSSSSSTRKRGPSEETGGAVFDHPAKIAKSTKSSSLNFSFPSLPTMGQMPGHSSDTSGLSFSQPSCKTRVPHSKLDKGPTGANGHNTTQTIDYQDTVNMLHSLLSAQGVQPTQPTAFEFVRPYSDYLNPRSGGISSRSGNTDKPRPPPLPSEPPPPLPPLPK
T1 sequence (P11802 whole entry): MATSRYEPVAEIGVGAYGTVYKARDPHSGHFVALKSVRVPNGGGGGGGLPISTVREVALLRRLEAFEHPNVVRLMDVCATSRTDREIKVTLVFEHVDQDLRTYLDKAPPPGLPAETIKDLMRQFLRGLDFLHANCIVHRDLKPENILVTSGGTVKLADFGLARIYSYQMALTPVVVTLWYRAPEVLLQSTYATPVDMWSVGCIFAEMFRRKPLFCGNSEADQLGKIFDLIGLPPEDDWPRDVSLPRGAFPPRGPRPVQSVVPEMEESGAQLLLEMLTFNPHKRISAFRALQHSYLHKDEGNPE
T1 sequence (P30281 whole entry partner): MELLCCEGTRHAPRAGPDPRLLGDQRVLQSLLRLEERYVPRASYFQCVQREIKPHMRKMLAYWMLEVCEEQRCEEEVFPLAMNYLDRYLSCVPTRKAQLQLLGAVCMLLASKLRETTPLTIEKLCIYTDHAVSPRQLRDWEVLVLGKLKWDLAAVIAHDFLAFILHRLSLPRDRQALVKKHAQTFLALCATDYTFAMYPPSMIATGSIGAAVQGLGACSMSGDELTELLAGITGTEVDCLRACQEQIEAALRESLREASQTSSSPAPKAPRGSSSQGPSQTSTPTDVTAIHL
T2 sequence (Q00534 whole entry): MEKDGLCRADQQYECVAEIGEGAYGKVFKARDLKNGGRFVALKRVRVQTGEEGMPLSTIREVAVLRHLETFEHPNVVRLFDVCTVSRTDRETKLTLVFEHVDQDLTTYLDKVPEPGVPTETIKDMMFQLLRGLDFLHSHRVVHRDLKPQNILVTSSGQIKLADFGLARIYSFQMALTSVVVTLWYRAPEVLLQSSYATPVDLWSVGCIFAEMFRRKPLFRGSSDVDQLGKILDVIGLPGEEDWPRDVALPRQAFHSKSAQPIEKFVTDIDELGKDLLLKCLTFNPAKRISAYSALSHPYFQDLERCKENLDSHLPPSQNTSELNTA
T2 sequence (P30281 whole entry partner): as the sequence (P30281 whole entry partner) above

Row | Compound | inhibition at 1 µM (CDK4) [%] | inhibition at 1 µM (CDK6) [%] | inhibition at 1 µM (CDK9) [%] | IC50 (CDK4) | IC50 (CDK6) [nM] | IC50 (CDK9) | IC50 (MCF7 cells) [nM] | IC50 (H460 cells) [nM] | IC50 (4T1 breast cancer cells) [nM] | IC50 (T-47D cells) [nM] | IC50 (H1299 cells) [nM] | IC50 (A549 cells) [nM]
1 | Cc1cc(SCCCCCN=C=S)ccc1Nc1ncc2cc(C(=O)N(C)C)n(C3CCCC3)c2n1 [X2] | 29 ± 2.1 | 17 ± 1.2 | 80 | – | – | – | – | – | – | – | – | –
2 | CN(C)C(=O)c1cc2cnc(Nc3ccc(S(=O)(=O)CCCN=C=S)cc3)nc2n1C1CCCC1 [X9] | 94 ± 1.6 | 92 ± 1.2 | 97 | 43 ± 2.6 nM | 101 ± 4.7 | 4 ± 0.4 nM | – | – | – | – | – | –
3 | CN(C)C(=O)c1cc2cnc(Nc3ccc(CS(=O)(=O)CCCN=C=S)cc3)nc2n1C1CCCC1 [X19] | 98 | 94 ± 0.8 | 98 ± 0.4 | 17 ± 0.7 nM | 55 ± 1.6 | 6 ± 0.4 nM | 160 ± 60 | 1450 ± 100 | 690 ± 140 | 720 ± 30 | 600 ± 40 | 1460 ± 280
4 | CN(C)C(=O)c1cc2cnc(Nc3ccc(SCCCCCN=C=S)cc3)nc2n1C1CCCC1 [X1] | 35 ± 0.5 | 63 ± 1.2 | 76 | – | – | – | – | – | – | – | – | –
5 | CN(C)C(=O)c1cc2cnc(Nc3ccc(CS(=O)(=O)CCCCCCCN=C=S)cc3)nc2n1C1CCCC1 [X23] | 95 ± 0.5 | 77 ± 1.6 | 97 | 75 ± 10 nM | – | 14 ± 0.9 nM | – | – | – | – | – | –
6 | CN(C)C(=O)c1cc2cnc(Nc3ccc([S+]([O-])CCCCCN=C=S)cc3C(F)(F)F)nc2n1C1CCCC1 (stereo not shown) [X5] | 91 ± 0.8 | 48 ± 1.2 | 97 ± 0.4 | 331 ± 33.3 nM | – | 34 ± 5.3 nM | – | – | – | – | – | –
7 | CN(C)C(=O)c1cc2cnc(Nc3ccc([S+]([O-])CCCCCN=C=S)cc3)nc2n1C1CCCC1 (stereo not shown) [X7] | 99 | 87 ± 1.6 | 99 | 7 nM and 26 nM | – | 26 nM and 7 nM | 230 ± 40 | 920 ± 150 | 410 ± 100 | 100 ± 20 | 1150 ± 100 | 670 ± 30
8 | CN(C)C(=O)c1cc2cnc(Nc3ccc(CS(=O)(=O)CCCCCN=C=S)cc3)nc2n1C1CCCC1 [X21] | 98 ± 0.4 | 93 | 98 | 24 ± 0.9 nM | 78 ± 13.4 | 7 ± 0.6 nM | – | – | – | – | – | –
9 | CN(C)C(=O)c1cc2cnc(Nc3ccc(SCCCCCN=C=S)cc3C(F)(F)F)nc2n1C1CCCC1 [X4] | 9 ± 1.6 | 8 ± 3.3 | 41 ± 0.8 | – | – | – | – | – | – | – | – | –
10 | CN(C)C(=O)c1cc2cnc(Nc3ccc(S(=O)(=O)CCCCCN=C=S)cc3C(F)(F)F)nc2n1C1CCCC1 [X6] | 35 ± 2.4 | 14 ± 1.2 | 75 ± 0.4 | – | – | – | – | – | – | – | – | –
11 | CN(C)C(=O)c1cc2cnc(Nc3ccc(SCCCN=C=S)cc3)nc2n1C1CCCC1 [X8] | 70 ± 2.4 | 64 ± 0.8 | 97 ± 0.4 | – | – | 16 nM | 1330 ± 150 | 3220 ± 220 | 1460 ± 340 | 410 ± 100 | 3790 ± 70 | 3070 ± 110
12 | COc1cc(SCCCCCN=C=S)ccc1Nc1ncc2cc(C(=O)N(C)C)n(C3CCCC3)c2n1 [X3] | 8 ± 2.1 | 5 ± 0.8 | 33 ± 2.5 | – | – | – | – | – | – | – | – | –
